The subject of data set [1] is Staphylococcus aureus (306 MR). In words: MIC in broth, Gram+ strains. Format: cell-based. The settings on record: S. aureus (306 MR), Mueller-Hinton broth, 37° C., 18 hours, read-out: Minimal Inhibitory Concentration (MIC). Put shortly:
(§1)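 Minimal inhibitory concentrations come from serial two-fold dilution in Mueller-Hinton broth against 5.0×10^4 CFU/ml final inoculum, incubated humidified for 18 hours at 37° C.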

Data set [2] concerns Streptococcus faecalis (505). The experiment in a line: MIC in broth, Gram+ strains. Type of data set: cell-based. The settings on record: Enterococcus faecalis; S. faecalis (505), Mueller-Hinton broth, 37° C., 18 hours; read-out: Minimal Inhibitory Concentration (MIC). In short, it runs like this: as §1
The test system of data set [3] is Streptococcus faecalis (UM). In words: MIC in broth, Gram+ strains. Format: cell-based. The conditions noted are these: Enterococcus faecalis; S. faecalis (UM), Mueller-Hinton broth, 37° C., 18 hours; read-out: Minimal Inhibitory Concentration (MIC). In short, it runs like this:
as §1

Data set [4] relates to Bacillus subtilis (ATCC 6051). The experiment in a line: MIC in broth, Gram+ strains. Type of data set: cell-based. The settings on record: ATCC6051, B. subtilis (ATCC 6051), Mueller-Hinton broth, 37° C., 18 hours, read-out: Minimal Inhibitory Concentration (MIC). In short, it runs like this:
as §1

Data set [5] deals with Streptococcus faecalis (509). The experiment in a line: MIC in broth, Gram+ strains. Type of data set: cell-based. The conditions noted are these: Enterococcus faecalis; S. faecalis (509), Mueller-Hinton broth, 37° C., 18 hours; read-out: Minimal Inhibitory Concentration (MIC). In short, it runs like this: as §1
Data set [6] deals with Staphylococcus aureus (303). The experiment in a line: MIC in broth, Gram+ strains. Format: cell-based. The settings on record: S. aureus (303), Mueller-Hinton broth, 37° C., 18 hours, read-out: Minimal Inhibitory Concentration (MIC). Put shortly: as §1
In data set [7] the test system is Streptococcus faecalis (501). In words: MIC in broth, Gram+ strains. Type of data set: cell-based. The conditions noted are these: Enterococcus faecalis; S. faecalis (501), Mueller-Hinton broth, 37° C., 18 hours; read-out: Minimal Inhibitory Concentration (MIC). In short, it runs like this:
as §1

For data set [8], the system named is Streptococcus faecalis (518). The experiment in a line: MIC in broth, Gram+ strains. Type of data set: cell-based. The settings on record: Enterococcus faecalis; S. faecalis (518), Mueller-Hinton broth, 37° C., 18 hours; read-out: Minimal Inhibitory Concentration (MIC). Put shortly: as §1
For data set [9], the system named is Streptococcus faecalis (519). The experiment in a line: MIC in broth, Gram+ strains. Format: cell-based. The conditions noted are these: Enterococcus faecalis; S. faecalis (519), Mueller-Hinton broth, 37° C., 18 hours; read-out: Minimal Inhibitory Concentration (MIC). In short, it runs like this:
as §1

Data set [10] relates to Bacillus pumilus (CN 607). The experiment in a line: MIC in broth, Gram+ strains. The conditions noted are these: B. pumilus (CN 607), Mueller-Hinton broth, 37° C., 18 hours, read-out: Minimal Inhibitory Concentration (MIC). Format: cell-based. Put shortly: as §1
The subject of data set [11] is Streptococcus faecalis (516). In words: MIC in broth, Gram+ strains. The conditions noted are these: Enterococcus faecalis; S. faecalis (516), Mueller-Hinton broth, 37° C., 18 hours; read-out: Minimal Inhibitory Concentration (MIC). Type of data set: cell-based. In short, it runs like this:
as §1

In data set [12] the test system is Staphylococcus aureus (ATCC 14154). In words: MIC in broth, Gram+ strains. Type of data set: cell-based. The conditions noted are these: ATCC14154, S. aureus (ATCC 14154), Mueller-Hinton broth, 37° C., 18 hours, read-out: Minimal Inhibitory Concentration (MIC). In short, it runs like this: as §1
For data set [13], the system named is Streptococcus faecalis (R 2). The experiment in a line: MIC in broth, Gram+ strains. Format: cell-based. The settings on record: Enterococcus faecalis; S. faecalis (R 2), Mueller-Hinton broth, 37° C., 18 hours; read-out: Minimal Inhibitory Concentration (MIC). In short, it runs like this: as §1
The subject of data set [14] is Staphylococcus aureus (LC1). The experiment in a line: MIC in broth, Gram+ strains. Type of data set: cell-based. The conditions noted are these: S. aureus (LC1), Mueller-Hinton broth, 37° C., 18 hours, read-out: Minimal Inhibitory Concentration (MIC). In short, it runs like this: as §1
The subject of the next data set is Gram+ bacterial strains. In words: Mean MIC in broth and resistant strain number, Gram+ strains. Type of data set: cell-based. The conditions noted are these: 18 h, versus susceptible strains. In short, it runs like this: as §1
The test system of data set [15] is antibody-producer B lymphocytes (spleen of SRBC immunized mice). The experiment in a line: Test 1: primary antibody production (Jerne test) in spleen of SRBC immunized mice. Format: in vivo, mouse (male B6 D2 F1). How it is done: Evaluation of the "in vitro-ex vivo" effect of repeated oral administrations of ST 722 on the primary antibody production (Jerne test) in the spleen of SRBC (Sheep Red Blood Cells) immunized mice.
Male B6 D2 F1 mice (C. River) aged 8 weeks (6 animals each group) were utilized.
The substance (ST 722) was administered per os at the dose of 100 mg/kg/day from day -2 through day +2 (immunization at day 0).
The animals were immunized by intraperitoneal route with a concentration of 1.0×10^8 cells/mouse in 0.2 ml of sterile saline.
Five days later, spleens to be submitted to teasing process were removed from the animals sacrificed by cervical dislocation.
After standardization at 1.0×10^7 cells/ml, the splenocytes (0.1 ml) were mixed with warm agar-Hank's (2 ml) and 10% SRBC in PBS (0.2 ml) and seeded in Petri dishes (samples tested in triplicates) and incubated at 37° C. for 60 min.
After addition of complement (2 ml of guinea pig serum diluted 1:10 in Tris buffer), samples were further incubated at 37° C. for 30 min.
To block the haemolysis reaction, the Petri dishes were cooled at 4° C. and the haemolysis plaques were counted.
The antibody response to SRBC is expressed as number of plaque forming cells (PFC) per 1.0×10^6 splenocytes as well as per spleen.

The mark [16] stands for this setting: 100 mg/kg/day per os, day -2 through day +2, mean ± S.E.

On to `CCCCCCCCCCCOC(=O)CC(C[N+](C)(C)C)OC(=O)CC(C)C` [ST 722, Isovaleryl-L-Carnitine Undecyl Ester Chloride], for which the MIC in data set [1] came to 6.25 µg/mL; in data set [2], 3.12 µg/mL; in data set [3], 1.56 µg/mL; in [4], 3.12 µg/mL; in data set [5], 3.12 µg/mL; in [6], 6.25 µg/mL. Also, the MIC was 3.12 µg/mL in data set [7]; 3.12 µg/mL in data set [8]; 3.12 µg/mL in data set [9]; 1.56 µg/mL in data set [10]; 1.56 µg/mL in data set [11]; 3.12 µg/mL in data set [12]. Also, the MIC in data set [13] turned out to be 3.12 µg/mL; in data set [14], 1.56 µg/mL; against Gram+ bacterial strains, 3.12 µg/mL. The “toxic effect on weight of the lymphoid organs (spleen and thymus)” value in data set [15] (100 mg/kg/day per os) was “did not show values relating to a toxic effect”. In data set [15] (setting [16]), this molecule had a Body weight of 25.12 g. For the same molecule, the “PFC/10^6 cells” value in [15] (setting [16]) was determined as 261 ± 34 PFC/10^6 cells. In addition, in data set [15] (setting [16]), the PFC/spleen was 44440 PFC/spleen. In data set [15] (setting [16]), this molecule had a Spleen weight of 94.33 mg. In [15] (setting [16]), this molecule gave a Thymus weight of 59.50 mg. Moreover, the “modification in PFC number after the antigenic challenge” value in [15] (repeated (5 consecutive days) oral administrations) is listed as “did not cause a statistically significant modification in PFC number”.

The values above are taken from patent US5498632A, “Esters of acyl carnitines with long-chain aliphatic alcohols and pharmaceutical compositions containing same having antibacterial activity” (Sigma-Tau Industrie Farmaceutiche Riunite S.p.A., priority 1992, dated 1996).
